Assay results published in a melting point compilation (Tetko et al.; mined from patent text by program, amines drawn as free bases though some values may be those of a salt).

SMILES | melting point [°C]
CCCn1nc(OCc2ccccc2)cc1/C=C/C(=O)OCC | 58 to 59
CC(C)NC(=O)C(C)(C)C | 106 to 108
O=C(NCNc1c(Nc2cccnc2)c(=O)c1=O)c1ccc(Cl)cc1 | 174 to 176
COC(=O)/C=C/c1cnc2ccccc2c1 | 118 to 120
O=C1OCCC12Sc1ccc(S(=O)(=O)N3CCOCC3)cc1C2=O (stereo not drawn) | 220 to 222
Brc1cncc(-c2ccccc2)c1 | 42 to 44
COC(=O)c1cc2cc(-c3ccc(C)cc3)ccc2nc1C | 84 to 87
Cc1cccc(C)c1CNc1cc(C(=O)N2CC2)cc2c1nc(C)n2C | 201 to 202
CC(C)(C)C(O)(C=Cc1ccc(Cl)cc1)Cn1ccnc1 (stereo not drawn) | 139 to 141
CC(C)(C)OC(=O)NCCc1ccc(OCCC2Oc3ccccc3N(Cc3cccc(Cl)c3)C2=O)cc1 (stereo not drawn) | 91 to 92
O=C(O)CCc1cc(Cl)ccc1C(=O)O | 156 to 158
CCOC(=O)c1cc(-c2ccc(Cl)cc2)cnc1C(Cl)Cl | 132 to 134
Nc1nc(/C(=N/OC23CC4CC(CC(C4)C2)C3)C(=O)O)cs1 | 203 to 204
O=C(CCCCCl)c1ccc2c(c1)Cc1cc(C(=O)CCCCCl)ccc1-2 | 124 to 125
O=[N+]([O-])c1c(Cl)cccc1NCC(O)CO (stereo not drawn) | 126
CC(C)OC(=O)C1CCCn2c(C(=O)c3ccc(F)cc3)ccc21 (stereo not drawn) | 92
CCOC(=O)c1ccc(NCCCCCCc2ccccc2)cc1 | 69.5 to 72.5
CS(=O)(=O)NCC1CC2C=CC1C2 (stereo not drawn) | 60 to 62
CN(C)Cc1ccc(CSCCNc2nc(C(O)c3ccccc3)nn2C)o1 (stereo not drawn) | 121 to 122
O=C(CN1C(=O)CNC1=O)OCc1ccccc1 | 142 to 144
O=Cc1ccc(Oc2ccc3c(c2)OCO3)cc1 | 67 to 70
CCc1nnc2cc(C)c(-c3ccc(C(N)=O)cc3)nn12 | 210 to 213
OCC1C(c2ccc(F)cc2)CCC12C=Cc1ccccc12 (stereo not drawn) | 84 to 86
N#CCSc1nnc2ccccn12 | 121 to 123
O=[N+]([O-])c1cccc(CN(CCO)CCO)c1 | 71 to 72
O=C(O)c1ccccc1OCCNC(=O)C1Cc2ccccc2N1S(=O)(=O)c1ccc(-c2cccc(C(F)(F)F)c2)cc1 (stereo not drawn) | 70

SMILES | melting point [°C]
Cc1cc(-c2noc(C)c2-c2ccc(S(N)(=O)=O)c(F)c2)ccc1-c1cscn1 | 159
COc1ccc(-c2nc(SCC(C)=O)[nH]c2-c2ccc(OC)cc2)cc1 | 115 to 118
Cc1noc(-c2cccc(C3=Nc4ccc(-c5ccc(F)cc5)cc4NC(=O)C3)c2)n1 | 266 to 268
CCCOC(=O)Oc1ccc(-c2nc3c(N)nc(N)nc3nc2N)cc1 | 302 to 308
OCCCC(c1c[nH]c2ccccc12)c1c[nH]c2ccccc12 | 110 to 115
CCCc1c(C(=O)C2CCCCC2)c2ccc(C(N)=O)cc2n1Cc1ccccc1Cl | 208 to 210
CCCCCCCC[Si](C)(C)c1cccc(Cl)c1C(=O)NCC | 62 to 63
CS(=O)(=O)c1ccc(Oc2cc(OC3CCOCC3)c3[nH]c(C4=NCC(CCO)S4)cc3c2)nc1 (stereo not drawn) | 165 to 166
O=C(c1ccccc1SSc1ccccc1C(=O)N1CCOCC1)N1CCOCC1 | 103 to 110
COc1ccc(CCC(=O)Nc2c(C)c(C)c3c(c2C)[C@@H](c2ccc(C)cc2)C(C)(C)O3)cc1 | 170 to 172
COc1ccc(C)cc1NC(=O)Nc1ccc(N2CCN(C(=O)Nc3ccc(OCCO)cc3C(F)(F)F)CC2)nc1 | 198 to 200
Cc1c(Cl)n(C2OC(CO)C(O)C2O)c2cc(Cl)c(Cl)cc12 (stereo not drawn) | 190 to 191
CC(C)(C#N)ON1C(C)(C)CNC(=O)CC1(C)C | 130 to 134
O=C(O)c1cccc(Oc2ccccc2Cl)c1[N+](=O)[O-] | 185 to 187
FC(F)(F)CNC(=S)NCc1ccc(C(F)(F)F)cc1 | 80 to 82
CCOCCCN1C=Cc2cc(S(N)(=O)=O)sc2S1(=O)=O | 131 to 132
CCCCc1nnc2ccccc2c1Cc1ccc(-c2ccccc2)c(C(=O)O)c1 | 210
COc1cc(N)c(Cl)cc1C(=O)NCC1CCN(CCCC(=O)c2ccccc2)CC1 | 148 to 150
COc1nc(SC)nc(Cl)c1C(=O)O | 179 to 181
O=C(CCCC=CCC1C(O)CC(O)C1C=CC(O)CCc1ccccc1)ON1C(=O)CCC1=O (stereo not drawn) | 93.5 to 103
COc1cc2c(cc1OC)C1(CCN(CCc3ccc([N+](=O)[O-])cc3)CC1)N(Cc1ccc([N+](=O)[O-])cc1)CC2=O | 174 to 177
CCOC(=O)C(=Cc1ccc(NC)cc1[N+](=O)[O-])C(=O)OCC | 113 to 114
CCCCOP(=O)(Cc1cc(C(C)(C)C)c(O)c(C(C)(C)C)c1)Cc1cc(C(C)(C)C)c(O)c(C(C)(C)C)c1 | 133 to 135
COC(=O)c1cc(F)c(N2CCC(NC(C)=O)C2)nc1Nc1ccc(F)cc1F (stereo not drawn) | 199 to 200
CS(=O)(=O)c1ccc(-n2nc(C(F)F)cc2-c2nc3ccc(F)cc3s2)cc1 | 204 to 206
CC(=O)OC(C)c1cc2c(s1)C(=O)c1sccc1C2=O (stereo not drawn) | 165 to 166

SMILES | melting point [°C]
O=C(CBr)Nc1ccc(F)cc1C(=O)O | 191 to 192
COc1ccc(-c2cc(C(=O)O)c(=O)n(CC3CC3)n2)cc1F | 169 to 171
CC(C#N)c1ccc2c(=O)c3ccccc3ccc2c1 (stereo not drawn) | 108 to 109
COc1cc2c(cc1OC)CN(CCCCc1ccc(NC(=O)c3cccc4c(=O)cc(-c5ccccc5)oc34)cc1)CC2 | 117 to 120
COC(=O)C12OCC34C(CC5C(C)=C(O)C(=O)CC5(C)C3C(O)C1O)OC(=O)C(OC(=O)C=C(C)C(C)C)C24 (stereo not drawn) | 220 to 223
CSc1nc(F)cc(NN)n1 | 153 to 154
O=c1[nH]cnc2ccc(C=Cc3ccncc3)cc12 | 307 to 309
CCNC(=O)n1nc(Oc2ncc(C(F)(F)F)cc2Cl)c(Cl)c1C | 111 to 112
COc1ccc(C2(CC(=O)O)CNC(=O)C2)cc1OC (stereo not drawn) | 162 to 165
COc1ccc2ccccc2c1/C=C/NC=O | 160 to 162
Cc1nn(-c2ccc(C(F)(F)F)cn2)cc1COc1cc(/C=C/C(=O)O)n(C)n1 | 208 to 209
Cn1c(=O)c(-c2ccccc2Cl)cc2cnc(N[C@H]3CC[C@H](N)CC3)nc21 | 190 to 191
Nc1cc(Cl)cc(Cl)c1C(=O)NCc1ccc(Cl)cc1 | 174 to 178
Cc1nn(C)c(C)c1NC(=S)n1ccc2cc(Cl)ccc21 | 165 to 166
Cc1oc2c(Br)cc(C(CCOS(C)(=O)=O)CCOS(C)(=O)=O)cc2c1C | 154 to 156
CC(C)CCOc1c(Cl)c(Sc2ccccc2N)c(OCCC(C)C)c2c1C(=N)NC2=N | 175 to 176
CSc1nc(Cl)c(-c2c(F)cccc2Cl)c(NC(C)C)n1 | 94 to 98
COC(=O)C(=O)CC(=O)/C=C/c1ccc(Cl)cc1 | 135 to 136
CC(F)(F)CCc1ccccc1S(N)(=O)=O | 70 to 72
CC(=O)OC(c1nc(C)c(C)s1)(c1nc(C)c(C)s1)C(F)(F)F | 163 to 164
COc1cc2c(cc1OC)C(=CN1CCN(C)CC1)C(=O)N2 | 154 to 156
CCC1=C(C)CN(C(=O)NC2COc3cc(OC)c(S(=O)(=O)NC(=S)NC)cc3C2)C1=O (stereo not drawn) | 205
COc1cc2ccc(-c3ccccc3)cc2cc1SC | 124 to 125
CCCCCCCCCCCCCCCCCCCCOC(=O)P(=O)(OC)OC | 53 to 54
Cc1cc(C(=O)CCc2cc(-c3ccc(C(F)(F)F)cc3)nn2CC2CC2)ccc1OC(C)(C)C(=O)O | 55 to 60
O=CN1CCN(O)CC1 | 118 to 124

SMILES | melting point [°C]
NC(=O)c1c(Cl)c(-c2ccccc2)n2c1CN(C(=O)Cc1cccs1)CC2 | 225 to 229
NC1(C(F)F)CCCNC1=O (stereo not drawn) | 149
CC#Cc1ncn2c1[C@@H]1CCCN1C(=O)c1c(Cl)cccc1-2 | 208 to 209
COC(=O)c1ccc2ccccc2c1OCC(F)(F)F | 69.5 to 70.5
COc1ccc(Cc2cc3cc(C#N)ccc3o2)cc1 | 78 to 80
NC(=O)N(O)CC#Cc1cccc(Oc2ccccn2)c1 | 158 to 160
CCOC(=O)Cc1sc(Sc2cc(C(=O)OC)nc3ccccc23)nc1C | 94 to 95
CCOc1cccc(COc2ccc3c(c2)C=C(C(=O)Nc2ccc(CN(C)C4CCOCC4)cc2)CCS3(=O)=O)c1 | 189 to 192
NC(CCN1CCC(O)(Cc2ccccc2)CC1)C(=O)c1ccccc1 (stereo not drawn) | 123 to 124
CC(C)c1ccc(C2(OC(=O)N(C)C)C(=O)c3ccccc3C2=O)c(O)c1 | 114 to 118
COc1cc2nc(N3CCN(c4ccnc(N(C)C5CCCC5)n4)CC3)nc(N)c2cc1OC | 333 to 334
OCC(O)COc1cc(-c2cccc(Cl)c2)on1 (stereo not drawn) | 92 to 93
Cc1cccc2c1CCC2=NNC(=N)N | > 300
Cn1ncc(/C=C/C(=O)Nc2ccc3c(c2)oc(=O)n3C)c1-c1ccc(F)cc1 | 265 to 266
COc1ccc(CCNC(=O)C(=O)NCCCCCCN)cc1OC1CCCC1 | 105 to 110
COc1cccc(CC(NC(C)=O)C(=O)O)c1OCc1ccccc1 (racemic) | 169 to 170
CCN1C(=O)C(C)(C)N=C(c2ccccc2F)c2cc([N+](=O)[O-])cc(Cl)c21 | 156
COc1ccccc1Oc1c(O)nc(O)nc1O | 202 to 204
CC(Oc1ccc(Oc2ccc(Cl)cc2)cc1)C(=O)N1CCCO1 (stereo not drawn) | 98 to 100
CC(=O)OC1CC(=O)N(CC(N)=O)C1 (stereo not drawn) | 84 to 86
CCCCCCOCOc1c(C(C)(C)C)cc(-c2ccc(C#N)c(C#N)c2)cc1C(C)(C)C | 106 to 107
O=C1CCC(CCC(=O)OCc2ccccc2)N1 (stereo not drawn) | 79 to 80
Cc1ccc(CN2CC=C(/C=C/c3cccc(Cl)c3)CC2)cc1 | 86 to 88
Cn1c(COc2ccc(C#N)cc2)nc2nc(C=O)ccc21 | 231 to 234
COC(=O)CCC#Cc1cccc(Br)n1 | 59 to 61
